Consider 15 compounds from ChEMBL document CHEMBL4270488, “Antibacterial Compounds from Marine Bacteria, 2010-2015” (J Nat Prod, 2017).

In assay [1] the test system is Staphylococcus haemolyticus. Put plainly: Antibacterial activity against Staphylococcus haemolyticus UST950701-004 measured after overnight incubation by microdilution method. In kind it is functional. For orientation: Broth dilution looks for growth in wells or tubes with falling amounts of substance.
Assay [2] concerns Bacillus subtilis. The assay is described as follows: Antibacterial activity against Bacillus subtilis 769 measured after overnight incubation by microdilution method. In kind it is functional.
For assay [3], the system named is Staphylococcus aureus. The assay is described as follows: Antibacterial activity against Staphylococcus aureus UST950701-005 measured after overnight incubation by microdilution method. Type of assay: functional.
The subject of assay [4] is Staphylococcus aureus. Put plainly: Antibacterial activity against methicillin-resistant Staphylococcus aureus ATCC 43300 measured after overnight incubation by microdilution method. Type of assay: functional.
Assay [5] relates to Mycobacterium tuberculosis. Put plainly: Antibacterial activity against Mycobacterium tuberculosis H37Rv ATCC 27294 incubated for 10 days by GFP based fluorescence assay. In kind it is functional. The settings on record: H37Rv ATCC 27294, 240 h.
The subject of assay [6] is Staphylococcus aureus. Put plainly: Antibacterial activity against Staphylococcus aureus incubated for 18 hrs. Type of assay: functional.
For assay [7], the system named is Staphylococcus aureus. Put plainly: Antibacterial activity against Staphylococcus aureus ATCC 29213. In kind it is functional.
The next assay relates to Bacillus thuringiensis. The assay is described as follows: Antibacterial activity against Bacillus thuringiensis SCSIO BT01. Type of assay: functional.
The next assay concerns Enterococcus faecalis. Put plainly: Antibacterial activity against Enterococcus faecalis ATCC 29212. Type of assay: functional.
Assay [8] has as its system Mycobacterium tuberculosis. Put plainly: Antibacterial activity against Mycobacterium tuberculosis H37Rv ATCC 27294 incubated […]. In kind it is functional.
The subject of assay [9] is Bacillus subtilis. The assay is described as follows: Antibacterial activity against Bacillus subtilis ATCC […] incubated for 16 hrs. Type of assay: functional.
Assay [10] has as its system Bacillus subtilis. Put plainly: Antibacterial activity against Bacillus subtilis CMCC63501. Type of assay: functional.
Assay [11] concerns Pseudomonas aeruginosa. Put plainly: Antibacterial activity against Pseudomonas aeruginosa by broth dilution assay. Type of assay: functional.
Assay [12] is described as follows: Antibacterial activity Bacillus pumilus against by broth dilution assay. In kind it is functional.
Assay [13] deals with Yersinia pseudotuberculosis. The assay is described as follows: Inhibition of type 3 secretion system protein secretion in Yersinia pseudotuberculosis at 30 ug/ml incubated for 2 hrs by SDS-PAGE and densitometric analysis.
Assay [14] deals with Bacillus subtilis. The assay is described as follows: Antibacterial activity against Bacillus subtilis SCSIO BS01. In kind it is functional.
Assay [15] deals with Bacillus subtilis. The assay is described as follows: Antibacterial activity against Bacillus subtilis incubated for 24 hrs by standard broth dilution assay. Type of assay: functional.
A further assay relates to Escherichia coli. Put plainly: Antibacterial activity against Escherichia coli incubated for 24 hrs by standard broth dilution assay. Type of assay: functional.
The test system of assay [16] is Pseudomonas aeruginosa. Put plainly: Antibacterial activity against Pseudomonas aeruginosa incubated for 24 hrs by standard broth dilution assay. In kind it is functional.
For assay [17], the system named is Staphylococcus aureus. Put plainly: Antibacterial activity against Staphylococcus aureus incubated for 24 hrs by standard broth dilution assay. In kind it is functional.

Converted amounts (≈) assume the structure as drawn.

Turning to `COc1ccc2oc3c4c(c(O)c(O)c3c(=O)c2c1O)CCc1cc2c(c(O)c1-4)C(=O)N1[C@@](C)(C2)OC(=O)[C@]1(C)CO`, the MIC (in assay [1]; against Bacillus subtilis [2]; with Staphylococcus aureus [3]; in the assay with Staphylococcus aureus [4]) was at most 1 µg/mL each time.

With `Cc1c2oc3c(C)ccc(C(=O)N[C@@H]4C(=O)N[C@H](C(C)C)C(=O)N5CCC[C@H]5C(=O)N(C)CC(=O)N(C)[C@@H](C(C)C)C(=O)O[C@@H]4C)c3nc-2c(C(=O)N[C@@H]2C(=O)N[C@H](C(C)C)C(=O)N3CC(O)C[C@H]3C(=O)N(C)CC(=O)N(C)[C@@H](C(C)C)C(=O)O[C@@H]2C)c(N)c1=O` (stereo partly specified), the MIC (usually the smallest concentration in the dilution series that meets the test's criterion for growth inhibition) in assay [5] is 1 to 8 µg/mL (≈ 0.787 to 6.29 µM).

As for `COc1ccc2oc3c4c(c(O)c(O)c3c(=O)c2c1O)CCc1cc2c(c(O)c1-4)C(=O)N1[C@@](C)(CO)C(=O)O[C@@]1(C)C2`, the MIC (in assay [1]; with Bacillus subtilis [2]; in the assay with Staphylococcus aureus [3]; in the assay with Staphylococcus aureus [4]) was at most 1 µg/mL in each case.

For the compound `C[C@@H]1O[C@](C)(C(=O)O)O[C@H]1/C=C/C=C/C=C/C(=O)O[C@H]1CC[C@H](c2ccc3c(c2O)C(=O)c2cc(O)c4c(c2C3=O)C(=O)[C@H](O)[C@](C)(O)C4)O[C@@H]1C`, the MIC against Staphylococcus aureus [6] is 2 to 6 µg/mL (≈ 2.78 to 8.35 µM).

`COC(=O)[C@@]1(C)O[C@@H](C)[C@H](/C=C/C=C/C=C/C(=O)O[C@H]2CC[C@H](c3ccc4c(c3O)C(=O)C3=C(C4=O)[C@@]4(O)C(=O)[C@H](O)[C@](C)(O)C[C@@]4(O)C=C3)O[C@@H]2C)O1` came in with an MIC in the assay on Staphylococcus aureus [6] of 2 to 6 µg/mL (≈ 2.66 to 7.99 µM).

Take `Cc1cc(=O)n(C)c2c1C(=O)c1c(C)cc(=O)n3c1[C@@]2(O)C[C@]3(C)O`: the MIC against Staphylococcus aureus [7], with Bacillus thuringiensis and against Enterococcus faecalis was 1 to 4 µg/mL (≈ 2.92 to 11.7 µM) each time.

As to `COC(=O)N[C@H]1[C@@H](C)O[C@@H](O[C@H]2C/C=C(\C)[C@@H]3C=C[C@@H]4[C@@H](O[C@H]5C[C@@H](O[C@H]6C[C@@H](O)[C@@H](O[C@@H]7C[C@@H](O)[C@@H](OC)[C@H](C)O7)[C@H](C)O6)[C@@H](O)[C@H](C)O5)[C@@H](C)C[C@H](C)[C@H]4[C@]3(C)C(=O)C3=C(O)[C@@]4(C[C@@H](C)C(CO)=C[C@H]4/C=C/2C)OC3=O)C[C@]1(C)[N+](=O)[O-]`, the MIC fell in the range of 16 to 32 µg/mL (≈ 13.5 to 27 µM) in assay [8], 1.5 to 12 µg/mL (≈ 1.26 to 10.1 µM) in the assay on Bacillus subtilis [9] and 1.6 to 3.1 µg/mL (≈ 1.35 to 2.61 µM) in the assay with Bacillus subtilis [10].

As for `COC(=O)N[C@H]1[C@@H](C)O[C@@H](O[C@H]2C/C=C(\C)[C@@H]3C=C[C@@H]4[C@@H](O[C@H]5C[C@@H](O[C@H]6C[C@@H](O)[C@@H](O[C@@H]7C[C@@H](O)[C@@H](OC)[C@H](C)O7)[C@H](C)O6)[C@@H](O)[C@H](C)O5)[C@@H](C)C[C@H](C)[C@H]4[C@]3(C)C(=O)C3=C(O)[C@@]4(C[C@@H](C)C(C=O)=C[C@H]4/C=C/2C)OC3=O)C[C@]1(C)[N+](=O)[O-]`, the MIC was in the range of 1.6 to 3.1 µg/mL (≈ 1.35 to 2.62 µM) in the assay on Bacillus subtilis [10] and 6.2 to 50 µg/mL (≈ 5.23 to 42.2 µM) against Staphylococcus aureus [7].

Regarding `Cc1cc(=O)[nH]c2c1C(=O)c1c(C)cc(=O)n(C)c1C2=O`, the MIC in the assay on Staphylococcus aureus [7], against Bacillus thuringiensis and against Enterococcus faecalis was 1 to 4 µg/mL (≈ 3.52 to 14.1 µM) in each case.

For the compound `CN(C)[C@@H]1C(O)=C(C(N)=O)C(=O)[C@@]2(O)C(O)=C3C(=O)c4c(O)cccc4[C@@](C)(O)[C@H]3C[C@@H]12` [TETRACYCLINE], the MIC (with Pseudomonas aeruginosa [11]; in [12]) was 40 to 80 µg/mL (≈ 90 to 180 µM) each time.

The compound `CC1(C)S[C@@H]2[C@H](NC(=O)[C@H](N)c3ccccc3)C(=O)N2[C@H]1C(=O)O` [AMPICILLIN] returned an MIC with Bacillus subtilis [10] of 1.6 to 3.1 µg/mL (≈ 4.58 to 8.87 µM).

For the compound `C/C=C(\C)[C@H](C)[C@H](C)/C=C(C)/C=C/C/C(C)=C/Cc1cc(O)cc(OC)n1`, the inhibition (commonly the share of the control response that was lost under treatment) in assay [13] was determined as 45%.

As for `C/C(C=O)=C/CC/C(C)=C/C[C@@]12OC(C)(C)[C@H](Cl)C[C@]1(Cl)C(=O)c1c(O)cc(O)cc1C2=O`, the MIC against Staphylococcus aureus [7], against Bacillus subtilis [14] and in the assay on Bacillus thuringiensis was 4 to 32 µg/mL (≈ 8.07 to 64.6 µM) in each case.

Consider `CC[C@]1(O)C[C@@]2(O)c3c(c(C)cc(=O)n3C)C(=O)c3c(C)cc(=O)n1c32`, for which the minimal inhibitory concentration (MIC) in the assay with Staphylococcus aureus [7], against Bacillus thuringiensis and in the assay on Enterococcus faecalis was 1 to 4 µg/mL (≈ 2.81 to 11.2 µM) throughout.

Consider `C[C@@H]1CCC/C=C/[C@@H]2O[C@H](C[C@@H](O)C/C=C\C=C\[C@H](O[C@@H]3O[C@H](CO)[C@@H](O)[C@H](O)[C@H]3O)C/C=C/C=C\C(=O)O1)[C@H]2O`, for which the MIC in the assay with Bacillus subtilis [15], in the assay on Escherichia coli, in the assay on Pseudomonas aeruginosa [16] and in the assay on Staphylococcus aureus [17] was 0.02 to 0.13 µg/mL (≈ 0.0344 to 0.224 µM) each time.
